Where two headings read alike, the source gives them in different places. Blank lines part the entries; values can stand above or below the compound they belong to.
Experiments:
[1] = Sorafenib and N-oxide metabolite plasma pharmacokinetics; assay type: in vivo, human
renal cancer = conditions: no prior VEGF inhibitor therapy; cited from earlier work
[2] = in vivo
Hsp90 = experiment: Western blot of PBMC lysates: Hsp90 levels; assay type: in vivo, human
Hsp70 = experiment: Western blot of PBMC lysates: Hsp70 levels; assay type: in vivo, human
clinical = assay type: in vivo, human
[3] = Phase I toxicity assessment
Tumor Hsp90 = conditions: cited from earlier work
kidney cancer = conditions: no prior VEGF inhibitor therapy, single agent; cited from earlier work
melanoma = conditions: single agent; cited from earlier work
[4] = Maximum, Day 1, in combination with tanespimycin
[5] = Maximum, Day −1, sorafenib given alone
[6] = Minimum, Day 1, in combination with tanespimycin
[7] = Minimum, Day −1, sorafenib given alone
[8] = number of patients, tanespimycin 300 mg/m^2 (n = 3) + sorafenib
[9] = number of patients, tanespimycin 350 mg/m^2 (n = 7) + sorafenib
[10] = number of patients, tanespimycin 400 mg/m^2 (n = 11) + sorafenib
[11] = number of patients, tanespimycin 450 mg/m^2 (n = 6) + sorafenib

AUClast [1, 4]: 146.8 µM·h | Cmax [1, 4]: 26.6 µM | Tmax [1, 4]: 10.0 h | AUClast [1, 5]: 181.2 µM·h | Cmax [1, 5]: 22.5 µM | Tmax [1, 5]: 10.0 h | AUClast [1, 6]: 46.7 µM·h | Cmax [1, 6]: 6.6 µM | Tmax [1, 6]: 1.0 h | AUClast [1, 7]: 44.3 µM·h | Cmax [1, 7]: 5.8 µM | Tmax [1, 7]: 1.0 h | AUC ([1]; human, plasma, po): 90.7 µM·h | Tmax ([1]; human, plasma, po, 400 mg): 1 to 10 h | mean steady-state trough levels ([1]; plasma, sorafenib 400 mg twice daily): 8.0 µM | time of chronic treatment until plasma concentration reached the steady-state ([1]; sorafenib 400 mg twice daily): 7 days | effect of coadministration of 17-AAG on systemic exposure ([1]; sorafenib 400 mg twice daily with 17-AAG): did not significantly alter | patients requiring dose modifications ([2]; human): 3 patients | patients with treatment interruptions ([2]; human): 5 patients
Compound: CNC(=O)c1cc(Oc2ccc(NC(=O)Nc3ccc(Cl)c(C(F)(F)F)c3)cc2)ccn1 [sorafenib]
response rate (renal cancer): 10% | predominant toxicities attributed [2]: hand-foot syndrome and diarrhea | effect on Hsp90 levels (Hsp90; sorafenib therapy): not affected

Compound: C=CCNC1=C2C[C@@H](C)C[C@H](OC)[C@H](O)[C@@H](C)/C=C(\C)[C@H](OC(N)=O)[C@@H](OC)/C=C\C=C(/C)C(=O)NC(=CC1=O)C2=O [tanespimycin, 17-demethoxy-allylaminogeldanamycin]
patients with increase in Hsp70 level among those showing clinical benefit (Hsp70; after tanespimycin therapy): 8 of the 10 | samples with Hsp70 induction (Hsp70; after treatment with tanespimycin (on sorafenib)): 11 of 14 | Cmax on days 1 and 15 compared (clinical; concurrent sorafenib): similar | half-life (clinical; human, plasma, iv): 3.6 h | Cmax (end of infusion) and AUC versus tanespimycin dose (clinical; intravenous infusion 300-450 mg/m^2): increased with increasing tanespimycin dose | clearance (Mean ± SD) (clinical; intravenous infusion, range 4.8 to 32.9 L/h/m^2): 15.0 ± 7.9 L/h/m^2 | patients with treatment interruptions ([3]; human, in vivo): 2 patients | recommended phase II dose ([3]; in combination with sorafenib, intravenous, days 1, 8 and 15 every 28 days): 400 mg/m^2 | Diarrhea Grade1 [3, 8]: 1 | Diarrhea Grade2 [3, 8]: 1 | Diarrhea Grade3 [3, 8]: 0 | Diarrhea Grade4 [3, 8]: 0 | Fatigue Grade1 [3, 8]: 3 | Fatigue Grade2 [3, 8]: 0 | Fatigue Grade3 [3, 8]: 0 | Fatigue Grade4 [3, 8]: 0 | Hand-Foot syndrome Grade1 [3, 8]: 1 | Hand-Foot syndrome Grade2 [3, 8]: 0 | Hand-Foot syndrome Grade3 [3, 8]: 0 | Hand-Foot syndrome Grade4 [3, 8]: 0 | Headache Grade1 [3, 8]: 1 | Headache Grade2 [3, 8]: 0 | Headache Grade3 [3, 8]: 0 | Headache Grade4 [3, 8]: 0 | Liver function abnormality Grade1 [3, 8]: 0 | Liver function abnormality Grade2 [3, 8]: 1 | Liver function abnormality Grade3 [3, 8]: 0 | Liver function abnormality Grade4 [3, 8]: 0 | Nausea Grade1 [3, 8]: 1 | Nausea Grade2 [3, 8]: 0 | Nausea Grade3 [3, 8]: 0 | Nausea Grade4 [3, 8]: 0 | Other toxicity Grade1 [3, 8]: 0 | Other toxicity Grade2 [3, 8]: 3 | Other toxicity Grade3 [3, 8]: 0 | Other toxicity Grade4 [3, 8]: 0 | Bleeding Grade1 [3, 9]: 1 | Bleeding Grade2 [3, 9]: 1 | Bleeding Grade3 [3, 9]: 0 | Bleeding Grade4 [3, 9]: 0 | Creatinine Grade1 [3, 9]: 1 | Creatinine Grade2 [3, 9]: 1 | Creatinine Grade3 [3, 9]: 0 | Creatinine Grade4 [3, 9]: 0 | Diarrhea Grade1 [3, 9]: 3 | Diarrhea Grade2 [3, 9]: 1 | Diarrhea Grade3 [3, 9]: 1 | Diarrhea Grade4 [3, 9]: 0 | Emesis Grade1 [3, 9]: 2 | Emesis Grade2 [3, 9]: 3 | Emesis Grade3 [3, 9]: 1 | Emesis Grade4 [3, 9]: 0 | Fatigue Grade1 [3, 9]: 2 | Fatigue Grade2 [3, 9]: 0 | Fatigue Grade3 [3, 9]: 0 | Fatigue Grade4 [3, 9]: 0 | Hand-Foot syndrome Grade1 [3, 9]: 0 | Hand-Foot syndrome Grade2 [3, 9]: 2 | Hand-Foot syndrome Grade3 [3, 9]: 0 | Hand-Foot syndrome Grade4 [3, 9]: 0 | Headache Grade1 [3, 9]: 1 | Headache Grade2 [3, 9]: 1 | Headache Grade3 [3, 9]: 0 | Headache Grade4 [3, 9]: 0 | Hemoglobin Grade1 [3, 9]: 1 | Hemoglobin Grade2 [3, 9]: 0 | Hemoglobin Grade3 [3, 9]: 0 | Hemoglobin Grade4 [3, 9]: 0 | Liver function abnormality Grade1 [3, 9]: 2 | Liver function abnormality Grade2 [3, 9]: 0 | Liver function abnormality Grade3 [3, 9]: 0 | Liver function abnormality Grade4 [3, 9]: 0 | Myalgias Grade1 [3, 9]: 1 | Myalgias Grade2 [3, 9]: 0 | Myalgias Grade3 [3, 9]: 0 | Myalgias Grade4 [3, 9]: 0 | Nausea Grade1 [3, 9]: 3 | Nausea Grade2 [3, 9]: 2 | Nausea Grade3 [3, 9]: 0 | Nausea Grade4 [3, 9]: 0 | Other toxicity Grade1 [3, 9]: 5 | Other toxicity Grade2 [3, 9]: 1 | Other toxicity Grade3 [3, 9]: 1 | Other toxicity Grade4 [3, 9]: 0 | Platelets Grade1 [3, 9]: 1 | Platelets Grade2 [3, 9]: 0 | Platelets Grade3 [3, 9]: 0 | Platelets Grade4 [3, 9]: 0 | Creatinine Grade1 [3, 10]: 0 | Creatinine Grade2 [3, 10]: 1 | Creatinine Grade3 [3, 10]: 0 | Creatinine Grade4 [3, 10]: 0 | Diarrhea Grade1 [3, 10]: 1 | Diarrhea Grade2 [3, 10]: 1 | Diarrhea Grade3 [3, 10]: 0 | Diarrhea Grade4 [3, 10]: 0 | Dyspnea Grade1 [3, 10]: 0 | Dyspnea Grade2 [3, 10]: 0 | Dyspnea Grade3 [3, 10]: 1 | Dyspnea Grade4 [3, 10]: 1 | Emesis Grade2 [3, 10]: 0 | Emesis Grade3 [3, 10]: 0 | Emesis Grade4 [3, 10]: 0 | Fatigue Grade2 [3, 10]: 2 | Fatigue Grade3 [3, 10]: 1 | Fatigue Grade4 [3, 10]: 0 | Hand-Foot syndrome Grade1 [3, 10]: 0 | Hand-Foot syndrome Grade2 [3, 10]: 3 | Hand-Foot syndrome Grade3 [3, 10]: 2 | Hand-Foot syndrome Grade4 [3, 10]: 0 | Headache Grade1 [3, 10]: 1 | Headache Grade2 [3, 10]: 0 | Headache Grade3 [3, 10]: 0 | Headache Grade4 [3, 10]: 0 | Hemoglobin Grade1 [3, 10]: 2 | Hemoglobin Grade2 [3, 10]: 1 | Hemoglobin Grade3 [3, 10]: 0 | Hemoglobin Grade4 [3, 10]: 0 | Infection Grade1 [3, 10]: 0 | Infection Grade2 [3, 10]: 1 | Infection Grade3 [3, 10]: 0 | Infection Grade4 [3, 10]: 0 | Liver function abnormality Grade1 [3, 10]: 1 | Liver function abnormality Grade2 [3, 10]: 0 | Liver function abnormality Grade3 [3, 10]: 0 | Liver function abnormality Grade4 [3, 10]: 0 | Myalgias Grade1 [3, 10]: 1 | Myalgias Grade2 [3, 10]: 0 | Myalgias Grade3 [3, 10]: 0 | Myalgias Grade4 [3, 10]: 0 | Nausea Grade1 [3, 10]: 6 | Nausea Grade2 [3, 10]: 1 | Nausea Grade3 [3, 10]: 1 | Nausea Grade4 [3, 10]: 0 | Neutropenia Grade1 [3, 10]: 0 | Neutropenia Grade2 [3, 10]: 0 | Neutropenia Grade3 [3, 10]: 1 | Neutropenia Grade4 [3, 10]: 0 | Other toxicity Grade1 [3, 10]: 3 | Other toxicity Grade2 [3, 10]: 3 | Other toxicity Grade3 [3, 10]: 2 | Other toxicity Grade4 [3, 10]: 0 | Platelets Grade1 [3, 10]: 2 | Platelets Grade2 [3, 10]: 0 | Platelets Grade3 [3, 10]: 0 | Platelets Grade4 [3, 10]: 0 | Abdominal pain Grade1 [3, 11]: 2 | Abdominal pain Grade2 [3, 11]: 0 | Abdominal pain Grade3 [3, 11]: 1 | Abdominal pain Grade4 [3, 11]: 0 | Diarrhea Grade1 [3, 11]: 2 | Diarrhea Grade2 [3, 11]: 0 | Diarrhea Grade3 [3, 11]: 1 | Diarrhea Grade4 [3, 11]: 0 | Emesis Grade1 [3, 11]: 1 | Emesis Grade2 [3, 11]: 0 | Emesis Grade3 [3, 11]: 0 | Emesis Grade4 [3, 11]: 0 | Fatigue Grade1 [3, 11]: 4 | Fatigue Grade2 [3, 11]: 1 | Fatigue Grade3 [3, 11]: 0 | Fatigue Grade4 [3, 11]: 0 | Hand-Foot syndrome Grade1 [3, 11]: 1 | Hand-Foot syndrome Grade2 [3, 11]: 1 | Hand-Foot syndrome Grade3 [3, 11]: 2 | Hand-Foot syndrome Grade4 [3, 11]: 0 | Headache Grade1 [3, 11]: 2 | Headache Grade2 [3, 11]: 0 | Headache Grade3 [3, 11]: 0 | Headache Grade4 [3, 11]: 0 | Hemoglobin Grade1 [3, 11]: 1 | Hemoglobin Grade2 [3, 11]: 0 | Hemoglobin Grade3 [3, 11]: 0 | Hemoglobin Grade4 [3, 11]: 0 | Hypertension Grade1 [3, 11]: 0 | Hypertension Grade2 [3, 11]: 1 | Hypertension Grade3 [3, 11]: 0 | Hypertension Grade4 [3, 11]: 0 | Infection Grade1 [3, 11]: 0 | Infection Grade2 [3, 11]: 0 | Infection Grade3 [3, 11]: 1 | Infection Grade4 [3, 11]: 0 | Liver function abnormality Grade1 [3, 11]: 0 | Liver function abnormality Grade2 [3, 11]: 0 | Liver function abnormality Grade3 [3, 11]: 0 | Liver function abnormality Grade4 [3, 11]: 1 | Myalgias Grade1 [3, 11]: 1 | Myalgias Grade2 [3, 11]: 0 | Myalgias Grade3 [3, 11]: 0 | Myalgias Grade4 [3, 11]: 0 | Nausea Grade1 [3, 11]: 4 | Nausea Grade2 [3, 11]: 0 | Nausea Grade3 [3, 11]: 0 | Nausea Grade4 [3, 11]: 0 | Other toxicity Grade1 [3, 11]: 3 | Other toxicity Grade2 [3, 11]: 0 | Other toxicity Grade3 [3, 11]: 1 | Other toxicity Grade4 [3, 11]: 0 | Platelets Grade1 [3, 11]: 0 | Platelets Grade2 [3, 11]: 0 | Platelets Grade3 [3, 11]: 1 | Platelets Grade4 [3, 11]: 0 | patients requiring dose modifications ([3]; sorafenib to 400 mg once daily, tanespimycin to one dose level lower): 4 patients | higher binding affinity of tumor Hsp90 (multi-chaperone complexes) (Tumor Hsp90): 100 fold | patient samples with decrease in Hsp90 levels (Hsp90; after tanespimycin therapy (on sorafenib)): 6 of the 14 | response in phase II trial (kidney cancer): no objective responses | response in phase II trial (melanoma): no objective responses or disease stabilization
